According to patent US20110070293A1, “Methods for the Preparation of Liposomes Comprising Docetaxel” (priority 2009, published 2011):
Where two headings read alike, the source gives them in different places.

Experiments:
[1] = Stability of docetaxel formulations upon dilution (reverse phase HPLC) and after lyophilization; assay type: physicochemical; settings: for time docetaxel remained soluble and formulation stable upon dilution: RP-HPLC
Method: (§1) Docetaxel (5 mg) was added to 31 μL of oleic acid and mixed using a VORTEX®. Ethanolamine (6 μL) was subsequently added and mixed using a VORTEX®. After mixing, the sample was dispersed in 963 μL of water for injection. Docetaxel was soluble and the formulation clear at 5 mg/mL. Docetaxel remained soluble, and the formulation was stable, upon dilution (1:10 in 2.5% glycerol) up to 24 hours as analyzed by a reverse phase high performance liquid chromatography method.
(§2) Docetaxel (5.0 mg) was added to 1 mL of 0.05 M sodium oleate and mixed using a VORTEX®. Docetaxel was soluble and the formulation clear at 5.0 mg/mL. Docetaxel remained soluble, and the formulation was stable, upon dilution (1:10 in 2.5% glycerol) up to 24 hours as analyzed by a reverse phase high performance liquid chromatography method.
as §2, with “(2” for “(5.0”, “1” for “0.05”, “caprylate” for “oleate”, “by” for “using”, “2” for “5.0”, “(1:2” for “(1:10 in”
as §2, with “(7.0” for “(5.0”, “1” for “0.05”, “linoleate” for “oleate”, “7.0” for “5.0”, “(1:10” for “(1:10 in”
(§3) Docetaxel (5 mg) was added to 1 mL of pre-made liposome containing 2 mM sodium oleate and 6% soy phosphatidyl choline, 10% trehalose, pH adjusted to 5-7 using Acetic acid, mixed using a VORTEX®, and microfluidized using a Microfluidizer with 10 passes at 15,000 psi. Five additional passes with the Microfluidizer at 15,000 psi were made to incorporate all 5 mg of the drug into 1 mL of pre-made liposome. Docetaxel was soluble and the formulation was transparent at 5 mg/mL. Docetaxel remained soluble, and the formulation was stable, upon dilution (1:10 in D5W) up to 48 hours as analyzed by a reverse phase high performance liquid chromatography method.
(§4) Hydrophobic or lipophilic compounds can be solubilized directly in sodium (or any ion) salt of fatty acid dissolved in an organic solvent. The organic solvent is subsequently removed using rotary evaporation, spray drying, or any other pharmaceutically acceptable processes. The drug-sodium salt of fatty acid mixture is subsequently dispersed in water, isotonic glycerol, or any pharmaceutically acceptable isotonic solution to achieve a desired concentration of the solubilized compound. For example, docetaxel (5 mg/mL) was dissolved in 100 mM sodium oleate in 100% ethanol. Ethanol was completely evaporated using rotary evaporation at 20° C. The docetaxel-sodium oleate was reconstituted with Water For Injection (“WFI”) or 2.5% glycerol to provide 5 mg/mL, 10 mg/mL, or 20 mg/mL concentration of docetaxel.
(§5) 50 μl of Docetaxel in ethanol (100 mg/mL) was added to 1 mL of pre-made liposome containing 2 mM sodium oleate and 6% soy phosphatidyl choline, 10% trehalose and pH adjusted to 5-7 using Acetic acid, mixed using a VORTEX® and microfluidized using a Microfluidizer with 10 passes at 15,000 psi. Docetaxel was soluble and the formulation is transparent at 5 mg/mL. Docetaxel remained soluble, and the formulation was stable, upon dilution (1:10 in D5W) up to 48 hours as analyzed by a reverse phase high performance liquid chromatography method. […] The lyophilized product is reconstituted with water for injection at 5 mg, 10, or 20 mg/mL concentration, essentially free of organic solvent.

[2] = cited from earlier work
[3] = Incorporation of docetaxel into liposome; assay type: physicochemical
Method: As provided herein, the sequence of the addition of docetaxel results in enhanced solubility of the docetaxel. The conventional method of incorporating a hydrophobic drug into liposome is by adding the drug to lipid before liposome preparation. See, e.g., Immordino, M. L. et al., Journal of Controlled Release, 2003, 91: 417-429. By the conventional process, the incorporation of the drug is only 0.3 to 0.7 mg/mL. When docetaxel is added after liposome preparation, the incorporation of docetaxel is increased from 0.3 mg/mL to 5 mg/mL, which is more than 10 fold increase in solubility of the drug in lipid alone.
In the conventional liposome preparation, the drug to lipid molar percent ratio is 4-6% with the incorporation of drug into liposome efficiency is only 56%. See Immordino, M. L. et al., Journal of Controlled Release, 2003, 91: 417-429.

[4] = Solubilization of docetaxel in fatty acid, fatty acid salt or oleate liposome media; assay type: physicochemical; settings: for solubility: aqueous with cosolvent or surfactant or cyclodextrin
Method: as §1, §2
as §2, with “(2” for “(5.0”, “1” for “0.05”, “caprylate” for “oleate”, “by” for “using”, “2” for “5.0”, “(1:2” for “(1:10 in”
as §2, with “(7.0” for “(5.0”, “1” for “0.05”, “linoleate” for “oleate”, “7.0” for “5.0”, “(1:10” for “(1:10 in”
as §3, §4, §5

[5] = conventional liposome preparation (Immordino et al.)
[6] = docetaxel added to pre-made liposome

In the case of CC(=O)O[C@@]12CO[C@@H]1C[C@H](O)[C@@]1(C)C(=O)[C@H](O)C3=C(C)[C@@H](OC(=O)[C@H](O)[C@@H](NC(=O)OC(C)(C)C)c4ccccc4)C[C@@](O)([C@@H](OC(=O)c4ccccc4)[C@H]21)C3(C)C [Docetaxel], the “time docetaxel remained soluble and formulation stable upon dilution” value ([1]; Example 6: oleic acid/ethanolamine, dilution 1:10 in 2.5% glycerol) is reported as “up to 24 hours”, the “time docetaxel remained soluble and formulation stable upon dilution” value ([1]; Example 7: 0.05 M sodium oleate, dilution 1:10 in 2.5% glycerol) is reported as “up to 24 hours” and the “time docetaxel remained soluble and formulation stable upon dilution” value ([1]; Example 8: 1 M sodium caprylate, dilution 1:2 2.5% glycerol) is reported as “up to 24 hours”. For the same compound, the “time docetaxel remained soluble and formulation stable upon dilution” value ([1]; Example 9: 1 M sodium linoleate, dilution 1:10 2.5% glycerol) was “up to 24 hours”, the “time docetaxel remained soluble and formulation stable upon dilution” value ([1]; Example 10: oleate liposome, dilution 1:10 in D5W) was “up to 48 hours” and the “time reconstituted docetaxel remained in solution” value ([1]; Example 11: docetaxel-sodium oleate reconstituted with WFI or 2.5% glycerol) was 2 hours, 4 hours, 6 hours, 8 hours or 24 hours. The “time docetaxel remained soluble and formulation stable upon dilution” value ([1]; Example 12: oleate liposome, dilution 1:10 in D5W) was “up to 48 hours”, the “drug to lipid molar percent ratio” value [2, 5] was 4-6% and the “efficiency of incorporation of drug into liposome” value [2, 5] was 56%. For the same compound, the “incorporation of the drug into liposome” value ([2]; conventional process: drug added to lipid before liposome preparation (Immordino et al.)) was 0.3 to 0.7 mg/mL, the “incorporation of docetaxel into liposome” value ([3]; docetaxel added after liposome preparation) was 5 mg/mL and the “increase in solubility of the drug versus lipid alone” value ([3]; docetaxel added after liposome preparation vs 0.3 mg/mL) was “more than 10 fold”. The “drug to lipid molar ratio” value [3, 6] was 8%, the “efficiency of incorporation of docetaxel into liposome” value [3, 6] was “about 100%” and the solubility ([4]; 0.05 M sodium oleate solution, Example 7: 0.05 M sodium oleate, read-out: concentration at which docetaxel was soluble and formulation clear) was 5000 µg/mL. The solubility ([4]; 1 M sodium caprylate solution, Example 8: 1 M sodium caprylate, read-out: concentration at which docetaxel was soluble and formulation clear) was 2000 µg/mL, the solubility ([4]; 1 M sodium linoleate solution, Example 9: 1 M sodium linoleate, read-out: concentration at which docetaxel was soluble and formulation clear) was 7000 µg/mL and the “concentration at which docetaxel was soluble and formulation transparent” value ([4]; Example 12: docetaxel in ethanol added to pre-made liposome, 2 mM sodium oleate, 6% soy phosphatidyl choline, 10% trehalose, pH 5-7) was 5000 µg/mL. It also gave a solubility ([4]; Example 10: solid docetaxel in pre-made liposome, 2 mM sodium oleate, 6% soy phosphatidyl choline, 10% trehalose, pH 5-7, read-out: concentration at which docetaxel was soluble and formulation transparent) of 5000 µg/mL and a solubility ([4]; oleic acid / ethanolamine dispersion in water for injection, Example 6: oleic acid, ethanolamine, water for injection, read-out: concentration at which docetaxel was soluble and formulation clear) of 5000 µg/mL.
